Patent US20180318275A1, “COMBINATION THERAPY USING PI3K INHIBITOR AND MDM2 INHIBITOR” (Novartis AG, priority 2015, published 2018)

System: 5 TP53 wild type colorectal cancer cell lines
Experiment: Cell proliferation over the cell line panel, Example 3
Format: cell-based
Conditions: Example 3, panel of 5 lines, 13 nM-10 μM
Experimental: To test the effect of the combination of COMPOUND A, COMPOUND B, and COMPOUND C on cell proliferation cells were plated in black 384-well microplates with clear bottom (Matrix/Thermo Scientific, Catalog number 4332) in 50 μL media per well at cell densities between 500 and 1250 cells/well (Table 1 above) and allowed to incubate at 37 degrees, 5% CO2 for 24 h. After 24 h one 384-well plate per cell line was prepared for cell counting by microscopy (see below) without receiving treatment (=‘baseline’). The other cell plates were treated by transferring 25 nL of the 2000× compound from drug master plates using an ATS acoustic liquid dispenser (ECD Biosystems) and resulting in a final 1× concentration. COMPOUND A was used over a final concentration range of 13 nM-10 μM, COMPOUND B was used over a final concentration range of 13 nM-10 μM, and COMPOUND C was used over a final concentration range of 13 nM-10 μM (7 1:3 dilution steps). In order to assess the effect of the triple combination all individual COMPOUNDS (A, B, C), all three pair wise combinations (A+B, A+C, B+C), and the triple combination (A+B+C) were tested in the same experiment. […] Caspase 3/7 induction was measured as a proxy for apoptosis induced by the treatments. Cells were treated for 72 h to 96 h depending on their doubling time (Table 1), and Caspase 3/7 activation was measured every 24 h by microscopy using an InCell Analyzer 2000 (GE Healthcare) equipped with a 4× objective and FITC excitation/emission filters. […] All cells per well/treatment were captured in a single image by fluorescence microscopy using an InCell Analyzer 2000 (GE Healthcare) equipped with a 4× objective and DAPI excitation/emission filters.
Images were analyzed after adapting previously described methods (Horn, Sandmann et al. 2011, Nat. Methods 8(4): 341-346) and using the Bioconductor package EBImage in R (Pau, Fuchs et al. 2010, Bioinformatics 26(7):979-981). Objects in both channels, DAPI (for Hoechst/DNA) and FITC (for Caspase 3/7), were segmented separately by adaptive thresholding and counted. […]

| SMILES | Single agent growth inhibition, in words |
| --- | --- |
| Cc1nc(NC(=O)N2CCC[C@H]2C(N)=O)sc1-c1ccnc(C(C)(C)C(F)(F)F)c1 [COMPOUND A, (S)-Pyrrolidine-1,2-dicarboxylic acid 2-amide 1-({4-methyl-5-[2-(2,2,2-trifluoro-1,1-dimethyl-ethyl)-pyridin-4-yl]-thiazol-2-yl}-amide)] | inhibited the growth of 2 of the cell lines with micromolar IC50 values, and was active only at the highest dose (10 μM) in the 3 other lines |
| COc1cc2c(cc1OC(C)C)[C@H](c1ccc(Cl)cc1)N(c1ccc(N(C)C[C@H]3CC[C@H](N4CCN(C)C(=O)C4)CC3)cc1)C(=O)C2 [COMPOUND B, (S)-1-(4-Chloro-phenyl)-7-isopropoxy-6-methoxy-2-(4-{methyl-[4-(4-methyl-3-oxo-piperazin-1-yl)-trans-cyclohexylmethyl]-amino}-phenyl)-1,4-dihydro-2H-isoquinolin-3-one] | inhibited the growth of cell lines with sub-micromolar to micromolar IC50 values |
